Measurements: patent publication EP4623908A1, “USE OF (-)-EPIGALLOCATECHIN GALLATE COMPOUND” (CF Pharmtech, Inc., priority 2022, dated 2024)

How the values were obtained:
[1] = cited from earlier work
[2] = test system: Pulmonary Fibrosis Induced by Bleomycin in Rats; assay: Bleomycin-induced pulmonary fibrosis model in rats (Example 5); format: in vivo, SD rats
Description: This study aims to compare the effects of different administration methods, including oral gavage of EGCG, tracheal nebulization of pirfenidone solution, and tracheal nebulization of EGCG at different doses, on the collagen content in lung tissues and pathological observations of rats with bleomycin-induced pulmonary fibrosis. The therapeutic effect of inhaled EGCG on rat pulmonary fibrosis was evaluated.
The solvents for the EGCG nebulization solution, modeling agents, and their solvents are as described in Example 4. The positive control drug is pirfenidone (purity 99%, pharmaceutical grade), with the solvent components consisting of NaCl and citric acid, forming a clear liquid.
SPF-grade SD rats, 6-9 weeks old with a weight of 200-300g, totaling 88 rats, were randomly divided into the following groups: • Sham operation group (normal control) (8 rats) • Pulmonary fibrosis model control group (10 rats) • Oral gavage EGCG group 1 (10 rats) • Oral gavage EGCG group 2 (10 rats) • Tracheal Nebulization EGCG solution groups 1-4 (10 rats per group, total 40 rats) • Tracheal Nebulization pirfenidone solution group (10 rats)
On D1, the normal control group was administered solvent 2 (saline injection solution, 1 mL/kg) via tracheal nebulization, while all other groups were administered bleomycin (2.5 mg/kg, 1 mL/kg) via tracheal nebulization twice a day (morning and afternoon) to establish the model. On D8, the body weights of the animals were recorded. From D10 to D28, the normal control and pulmonary fibrosis model groups were treated with solvent 1 via tracheal nebulization, while the remaining groups were administered EGCG or pirfenidone once daily at the following doses and administration methods: • Oral gavage EGCG group 1 and 2: 30 mg/kg, 60 mg/kg • Tracheal Nebulization EGCG group 1-4: 0.05 mg/kg, 0.4 mg/kg, 0.8 mg/kg, 1.6 mg/kg • Tracheal Nebulization pirfenidone solution group: 0.9 mg/kg (reference dose from M.W. Surber et al., ATS POSTER, 2014)
On D29, all animals were euthanized for dissection. During the necropsy, the lungs, trachea, and bronchi were examined for abnormalities. Left lung tissue was preserved at below -60°C for hydroxyproline content detection, and right lung tissue was prepared for pathological sectioning. Hematoxylin and eosin (HE) staining and Masson staining were performed for pathological morphological observations and fibrosis evaluation.
All groups were compared to the model group using statistical analysis via Kruskal-Wallis test. The results are indicated as follows: • *P < 0.05: statistically significant difference • **P < 0.01: highly significant difference • ***P < 0.001: extremely significant difference • ****P < 0.0001: extremely highly significant difference

[3] = animal experiments; inhalation; cited from earlier work
[4] = cited from earlier work; remark: listed apart in the source
[5] = nebulized 100 mg vs oral 801 mg

In the case of `COC(=O)c1ccc2c(c1)NC(=O)/C2=C(\Nc1ccc(N(C)C(=O)CN2CCN(C)CC2)cc1)c1ccccc1` [nintedanib], the “diarrhea in clinical study participants” value ([1]; oral 150 mg twice daily (BID)) is listed as “up to 61.5%”.

In the case of `Cc1ccc(=O)n(-c2ccccc2)c1` [pirfenidone], the “Hydroxyproline Content” value ([2]; rat lung tissue, positive control, Inh 0.9 mg/kg once daily D10 to D28, Mean ±SEM) is given as 0.587 ± 0.059 µg/µL, the “hydroxyproline content in rat lungs, difference from the model group” value ([2]; tracheal nebulization of pirfenidone solution 0.9 mg/kg) is given as “not statistically significant” and the “photosensitivity reactions in patients” value ([1]; oral 801 mg three times daily (TID)) is given as “up to 51%”. The “half-life in the lungs” value [3] was “about 10 minutes”, the plasma drug concentrations ([4]; inhalation) was 807 to 1370 ng/mL and the “Cmax in epithelial lining fluid (ELF) relative to the Cmax of the oral dose (higher)” value [4, 5] was 35 times. The “systemic exposure relative to the oral dose (lower)” value [4, 5] was “about 15 times”.
